Experimental data reported in US20250353898A1, “SERPIN PEPTIDE DERIVATIVES AND METHODS OF USING THE SAME” (priority 2022, published 2025).
“Also recorded” adds a separate entry of the source. Positions of bridges follow the written chain, without caps; N, C: chain ends. Non-standard residues stand in square brackets, D forms with d. No end group written: not given here. Nle = CCCC[C@H](N)C(=O)O; dDap = NC[C@@H](N)C(=O)O; Dap = NC[C@H](N)C(=O)O; Nal = naphthylalanine

How the values were obtained:
TNFα = TNFα secretion in IMG microglial cells after LPS (ELISA); format: cell-based; settings: for activity in reducing TNFα activation: A1-A15 screen, 50 or 100 μg/ml, FIG. 5; for activity in reducing TNFα activation / activity in reducing TNFα: LPS 100 ng/ml 24 hours; for activity in reducing TNFα: FIG. 6A/7, up to 50 μg/mL, versus SP163M, SA7; for EC50 TNFα: IMG microglial cells, LPS 100 ng/ml, 24 hours
Protocol: In the NFκB reporter cells, the NFκB inducible Secreted Embryonic Alkaline Phosphatase (SEAP) was measured in the supernatant. TNFα secretion in the supernatant was measured via ELISA.
(§1) Various SERPIN peptide derivatives were screened in vitro for their ability to reduce TNFα and NFκB secretion via LRP-1 activation. The NFκB reporter cells (THP1-XBlue-MD2-CD14 cells) were treated with each peptide derivative at various concentrations, up to 100 μg/ml before being insulted with LPS (5 ng/ml) and incubated overnight. The NFκB inducible Secreted Embryonic Alkaline Phosphatase (SEAP) was measured in the supernatant and read for absorbance. IMG Microglial cells were treated with each peptide derivative at various concentrations, up to 100 μg/ml before LPS (100 ng/ml) stimulation for 24 hours. An ELISA was used to measure TNFα in the supernatant ([…]).

NFκB = NFκB reporter assay (SEAP) in THP1-XBlue-MD2-CD14 cells after LPS; format: cell-based; settings: for activity in reducing NFκB activation: LPS 5 ng/ml 24 hours; for EC50 NFκB: NFκB reporter cells, LPS 5 ng/ml; for NFκB inhibition activity: 50 μg/ml, LPS 5 ng/ml overnight, compared to SP163M (and SP22)
Protocol: The NFκB inducible Secreted Embryonic Alkaline Phosphatase (SEAP) was measured in the supernatant and read for absorbance.
as §1

IL-6 = IL-6 secretion in IMG microglial cells after LPS (ELISA); format: cell-based; settings: for EC50 IL-6: IMG microglial cells, LPS 100 ng/ml, 24 hours
[1] = test system: NFκB reporter cells or IMG microglial cells; test: Cytotoxicity assay (CellTiter-Glo Luminescent Cell Viability Assay); settings: up to 12.5 μg/ml, 24 hours, NFκB reporter cells and IMG microglial cells, FIG. 11
Protocol: IMG cells were treated with peptide derivatives at concentrations at or exceeding those tested for the activity assays (FIGS. 5-7) for 24 hours.

[2] = test system: OVA induced allergic asthma; test: OVA induced allergic asthma mouse model, lung homogenate; format: in vivo, mice
Source text: Infiltration of immune cells into the lung likely account for the increase in total protein levels in the lung.

[3] = biological target: low-density lipoprotein receptor related protein-1 (LRP-1) on THP1-XBlue-MD2-CD14 NFκB reporter cells (UniProt Q07954 20-4544); test: cell-based or functional assay
[4] = biological target: low-density lipoprotein receptor related protein-1 (LRP-1) on IMG microglial cells (UniProt Q91ZX7 20-4545, limits assumed); test: cell-based or functional assay
Sequence of low-density lipoprotein receptor related protein-1 (LRP-1) on IMG microglial cells (Q91ZX7 20-4545 limits assumed): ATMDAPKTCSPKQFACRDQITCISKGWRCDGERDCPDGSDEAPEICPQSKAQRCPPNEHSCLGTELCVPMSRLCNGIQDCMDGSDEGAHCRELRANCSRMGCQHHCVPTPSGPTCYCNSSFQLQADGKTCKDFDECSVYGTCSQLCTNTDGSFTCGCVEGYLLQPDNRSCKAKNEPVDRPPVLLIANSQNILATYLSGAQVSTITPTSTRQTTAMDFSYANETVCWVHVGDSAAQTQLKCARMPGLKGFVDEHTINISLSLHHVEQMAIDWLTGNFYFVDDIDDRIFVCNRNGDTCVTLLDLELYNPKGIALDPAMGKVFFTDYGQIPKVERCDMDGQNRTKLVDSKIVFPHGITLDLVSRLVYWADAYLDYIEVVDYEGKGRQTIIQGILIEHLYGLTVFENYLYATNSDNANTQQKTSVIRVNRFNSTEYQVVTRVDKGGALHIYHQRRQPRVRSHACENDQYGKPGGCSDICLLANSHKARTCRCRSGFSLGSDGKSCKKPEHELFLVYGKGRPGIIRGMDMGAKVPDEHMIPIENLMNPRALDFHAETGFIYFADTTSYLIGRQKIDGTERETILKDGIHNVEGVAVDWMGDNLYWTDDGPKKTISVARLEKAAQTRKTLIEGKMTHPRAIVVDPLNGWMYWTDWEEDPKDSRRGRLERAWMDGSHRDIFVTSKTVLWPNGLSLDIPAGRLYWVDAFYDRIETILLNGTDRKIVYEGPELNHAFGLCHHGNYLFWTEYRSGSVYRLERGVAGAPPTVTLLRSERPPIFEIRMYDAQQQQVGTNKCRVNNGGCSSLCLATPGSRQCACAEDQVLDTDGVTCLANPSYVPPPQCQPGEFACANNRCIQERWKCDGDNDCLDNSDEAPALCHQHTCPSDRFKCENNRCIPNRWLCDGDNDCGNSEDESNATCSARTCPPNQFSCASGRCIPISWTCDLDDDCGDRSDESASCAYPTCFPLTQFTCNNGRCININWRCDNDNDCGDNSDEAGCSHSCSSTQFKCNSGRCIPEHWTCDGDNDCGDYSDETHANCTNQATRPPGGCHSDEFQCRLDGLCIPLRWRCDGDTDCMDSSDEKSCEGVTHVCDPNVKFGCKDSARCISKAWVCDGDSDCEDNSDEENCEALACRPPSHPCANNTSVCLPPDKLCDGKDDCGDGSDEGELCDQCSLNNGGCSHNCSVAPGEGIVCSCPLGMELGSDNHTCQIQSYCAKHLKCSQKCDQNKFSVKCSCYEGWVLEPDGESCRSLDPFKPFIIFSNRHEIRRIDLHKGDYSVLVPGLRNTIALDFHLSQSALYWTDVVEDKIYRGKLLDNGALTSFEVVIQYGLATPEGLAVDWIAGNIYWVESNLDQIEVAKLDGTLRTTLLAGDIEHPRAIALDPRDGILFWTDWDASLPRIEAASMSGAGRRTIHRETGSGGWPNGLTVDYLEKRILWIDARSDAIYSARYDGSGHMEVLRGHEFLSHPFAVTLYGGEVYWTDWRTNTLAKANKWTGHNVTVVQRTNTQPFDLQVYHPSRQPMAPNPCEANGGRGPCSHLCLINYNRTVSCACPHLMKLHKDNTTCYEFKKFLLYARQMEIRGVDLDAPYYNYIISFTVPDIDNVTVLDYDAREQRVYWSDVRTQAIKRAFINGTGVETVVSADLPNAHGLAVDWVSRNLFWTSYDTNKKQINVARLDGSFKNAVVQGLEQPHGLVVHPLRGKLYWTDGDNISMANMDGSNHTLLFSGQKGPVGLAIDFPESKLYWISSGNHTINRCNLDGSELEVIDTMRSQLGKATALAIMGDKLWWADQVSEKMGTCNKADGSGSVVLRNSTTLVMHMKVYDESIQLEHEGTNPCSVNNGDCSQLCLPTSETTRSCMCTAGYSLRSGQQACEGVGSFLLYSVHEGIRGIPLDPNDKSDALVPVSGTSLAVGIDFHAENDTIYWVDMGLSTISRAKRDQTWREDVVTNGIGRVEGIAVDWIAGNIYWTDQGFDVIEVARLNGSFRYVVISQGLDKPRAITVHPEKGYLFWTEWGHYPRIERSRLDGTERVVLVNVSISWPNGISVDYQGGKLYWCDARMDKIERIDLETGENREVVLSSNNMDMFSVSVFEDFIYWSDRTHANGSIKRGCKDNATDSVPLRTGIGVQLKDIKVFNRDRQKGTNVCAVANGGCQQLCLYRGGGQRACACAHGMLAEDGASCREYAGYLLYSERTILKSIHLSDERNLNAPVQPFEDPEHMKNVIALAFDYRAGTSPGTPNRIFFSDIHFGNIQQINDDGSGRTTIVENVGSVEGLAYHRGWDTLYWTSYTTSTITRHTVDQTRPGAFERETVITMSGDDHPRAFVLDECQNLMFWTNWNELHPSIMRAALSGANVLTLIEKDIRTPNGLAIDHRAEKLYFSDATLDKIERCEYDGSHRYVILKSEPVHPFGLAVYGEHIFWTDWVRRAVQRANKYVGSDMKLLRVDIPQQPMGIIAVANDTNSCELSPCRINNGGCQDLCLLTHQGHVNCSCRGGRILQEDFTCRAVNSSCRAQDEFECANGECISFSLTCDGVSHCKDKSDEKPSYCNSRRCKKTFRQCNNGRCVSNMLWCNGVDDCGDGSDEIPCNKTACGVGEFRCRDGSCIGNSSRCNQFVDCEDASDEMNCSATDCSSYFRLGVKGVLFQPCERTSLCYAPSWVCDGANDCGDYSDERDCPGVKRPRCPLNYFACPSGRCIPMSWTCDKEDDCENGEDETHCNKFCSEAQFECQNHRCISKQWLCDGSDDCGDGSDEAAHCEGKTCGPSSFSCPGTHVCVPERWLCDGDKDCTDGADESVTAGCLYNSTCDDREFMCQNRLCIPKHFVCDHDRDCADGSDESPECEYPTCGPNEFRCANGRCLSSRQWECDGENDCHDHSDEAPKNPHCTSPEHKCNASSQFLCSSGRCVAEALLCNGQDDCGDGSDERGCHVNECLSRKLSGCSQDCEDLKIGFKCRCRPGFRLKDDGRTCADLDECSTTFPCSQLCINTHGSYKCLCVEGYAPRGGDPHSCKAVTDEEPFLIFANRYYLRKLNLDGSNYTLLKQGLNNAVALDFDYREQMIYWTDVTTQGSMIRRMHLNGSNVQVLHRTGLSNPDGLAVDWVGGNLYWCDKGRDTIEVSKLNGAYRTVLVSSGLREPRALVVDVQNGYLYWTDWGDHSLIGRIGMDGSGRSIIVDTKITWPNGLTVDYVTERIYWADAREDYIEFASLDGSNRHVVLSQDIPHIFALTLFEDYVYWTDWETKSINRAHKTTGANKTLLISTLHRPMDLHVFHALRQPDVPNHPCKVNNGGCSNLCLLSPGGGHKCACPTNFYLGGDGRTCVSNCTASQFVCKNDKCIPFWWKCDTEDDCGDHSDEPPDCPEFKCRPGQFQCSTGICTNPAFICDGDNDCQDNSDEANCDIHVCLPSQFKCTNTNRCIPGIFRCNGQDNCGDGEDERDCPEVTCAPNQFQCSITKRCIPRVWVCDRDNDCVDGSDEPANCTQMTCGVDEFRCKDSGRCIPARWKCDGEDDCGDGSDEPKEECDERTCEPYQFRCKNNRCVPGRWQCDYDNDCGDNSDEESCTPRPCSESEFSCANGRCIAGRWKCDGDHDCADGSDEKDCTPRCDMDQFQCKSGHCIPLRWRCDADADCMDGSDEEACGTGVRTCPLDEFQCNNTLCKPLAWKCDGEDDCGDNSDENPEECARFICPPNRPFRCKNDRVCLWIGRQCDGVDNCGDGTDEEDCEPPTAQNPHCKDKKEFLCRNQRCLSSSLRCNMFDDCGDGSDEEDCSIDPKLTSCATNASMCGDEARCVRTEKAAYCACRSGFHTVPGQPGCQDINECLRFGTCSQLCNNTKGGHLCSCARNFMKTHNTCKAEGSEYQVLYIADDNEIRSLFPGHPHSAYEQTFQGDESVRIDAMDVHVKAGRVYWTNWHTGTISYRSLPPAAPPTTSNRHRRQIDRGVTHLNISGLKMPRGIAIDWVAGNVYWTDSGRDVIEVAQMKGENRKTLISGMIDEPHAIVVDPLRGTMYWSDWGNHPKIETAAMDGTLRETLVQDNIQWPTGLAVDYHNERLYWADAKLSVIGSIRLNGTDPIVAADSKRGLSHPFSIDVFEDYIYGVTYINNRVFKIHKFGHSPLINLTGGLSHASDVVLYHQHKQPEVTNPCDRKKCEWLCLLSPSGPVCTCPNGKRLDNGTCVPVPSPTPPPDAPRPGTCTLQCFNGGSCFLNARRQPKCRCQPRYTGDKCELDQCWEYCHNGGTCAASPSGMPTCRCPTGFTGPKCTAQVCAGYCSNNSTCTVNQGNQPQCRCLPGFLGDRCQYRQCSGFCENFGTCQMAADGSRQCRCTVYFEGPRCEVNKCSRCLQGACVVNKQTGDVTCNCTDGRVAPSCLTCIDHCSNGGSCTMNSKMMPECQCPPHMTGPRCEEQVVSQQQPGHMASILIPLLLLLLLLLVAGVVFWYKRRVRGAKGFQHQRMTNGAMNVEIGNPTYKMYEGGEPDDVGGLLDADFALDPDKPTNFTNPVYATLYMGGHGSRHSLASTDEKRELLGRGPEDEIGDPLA

serine protease TMPRSS2 = serine protease TMPRSS2 (UniProt O15393 1-492, limits assumed); test: cell-based or functional assay
Sequence of serine protease TMPRSS2 (O15393 whole entry): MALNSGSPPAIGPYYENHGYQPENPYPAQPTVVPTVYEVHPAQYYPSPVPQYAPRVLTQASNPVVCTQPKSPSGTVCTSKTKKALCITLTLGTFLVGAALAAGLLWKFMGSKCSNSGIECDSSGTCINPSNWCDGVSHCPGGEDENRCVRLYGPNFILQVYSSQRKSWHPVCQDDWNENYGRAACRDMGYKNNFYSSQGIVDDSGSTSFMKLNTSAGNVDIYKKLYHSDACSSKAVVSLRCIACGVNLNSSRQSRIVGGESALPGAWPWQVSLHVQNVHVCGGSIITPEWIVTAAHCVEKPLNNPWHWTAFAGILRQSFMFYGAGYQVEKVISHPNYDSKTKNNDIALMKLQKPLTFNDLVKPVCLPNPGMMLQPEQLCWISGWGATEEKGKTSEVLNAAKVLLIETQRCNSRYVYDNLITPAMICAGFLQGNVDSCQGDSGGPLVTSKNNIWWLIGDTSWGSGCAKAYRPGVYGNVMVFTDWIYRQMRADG

[5] = FIG. 6B/7, up to 50 μg/mL, versus SP163M, SA7

## Ac- RRRCFV[Nal]L[Nle]C (cyclic) [Peptide A5]
TNFα
  activity in reducing TNFα activation: improved activities in reducing TNFα activation

## Ac- RRR[Dap]FT[Nal]L[Nle]D (cyclic) [Peptide A2-1]
NFκB; [5]
  activity in reducing NFκB activation: superior activities
NFκB
  EC50 NFκB: 5.77 µg/mL
TNFα
  activity in reducing TNFα: superior activities in reducing TNFα
  EC50 TNFα: 12.99 µg/mL
IL-6
  EC50 IL-6: 9.644 µg/mL

## Ac-EEEVKFNKPFVFL[Nle]EEE [SA5]
NFκB
  NFκB inhibition activity: minimal NFκB inhibition activity

## Ac-HHHPFVFLMHHH [SA1]
NFκB
  NFκB inhibition activity: minimal NFκB inhibition activity

## Ac-HHHPFVFL[Nle]HHH [SA2]
NFκB
  NFκB inhibition activity: minimal NFκB inhibition activity

## Ac-KKKPFVFL[Nle]KKK [SA4]
NFκB
  NFκB inhibition activity: minimal NFκB inhibition activity

## Ac-RRRCFTFL[Nle]C (also: cyclic (positions not given here)) [Peptide A8]
TNFα
  activity in reducing TNFα activation: improved activities in reducing TNFα activation

## Ac-RRRCPFVFL[Nle]CRRR (cysteine pairing not given here) [SA6]
NFκB
  NFκB inhibition activity: improved activity in NFκB inhibition

## Ac-RRRDFVFL[Nle][Dap] (also: cyclic (positions not given here)) [Peptide A10]
TNFα
  activity in reducing TNFα activation: improved activities in reducing TNFα activation

## Ac-RRRPFVFL[Nle]RRR [SA3]
NFκB
  NFκB inhibition activity: improved activity in NFκB inhibition; also recorded: more effective in reducing NFκB activation

## HN- RRRAT[Nal]L[NIe]D (cyclic) [Peptide A3-14]
NFκB; FIG. 9, 1.56 to 12.5 μg/ml
  activity in reducing NFκB activation: superior activities in reducing NFκB activation
NFκB
  EC50 NFκB: 3.775 µg/mL
TNFα
  EC50 TNFα: 6 µg/mL
IL-6; FIG. 10, up to 12.5 μg/ml, LPS 100 ng/ml 24 hours
  activity in reducing IL-6 secretion: superior activities in reducing IL-6 secretion
IL-6
  EC50 IL-6: 0.605 µg/mL
[1]
  cytotoxic effects: no cytotoxic effects

## HN- RRRFTWL[dS]D (cyclic) (not fully specified (bridges); printed as HN- RRRFTWL[dS]D (cyclic); also: cyclic, mode of cyclisation not given here) [Peptide A3-16]
[1]
  cytotoxic effects: no cytotoxic effects

## HN- RRRFT[Nal]L[dS]D (cyclic) [Peptide A3-15]
[1]
  cytotoxic effects: no cytotoxic effects

## HN- RRRFT[Nal]]LD (cyclic) (cyclo(RRRFT[Nal]LD)) [Peptide A3-1]
[1]
  cytotoxic effects: no cytotoxic effects

## HN- RRRFVFL[dDap]D (cyclic) (not fully specified (bridges); printed as HN- RRRFVFL[dDap]D (cyclic); also: cyclic, ring not given here) [Peptide A3-10]
NFκB; FIG. 9, 1.56 to 12.5 μg/ml
  activity in reducing NFκB activation: superior activities in reducing NFκB activation

## HN- [rK]RRFT[Nal]]LD (cyclic) ([rK]RRFT[Nal]LD; lactam 1-8) [Peptide A3-2]
[1]
  cytotoxic effects: no cytotoxic effects

## HN-RRRFT[Nal]L[Nle]D (cyclic) [Peptide A2-2]
NFκB; [5]
  activity in reducing NFκB activation: superior activities
TNFα
  activity in reducing TNFα: superior activities in reducing TNFα

## HN-RRRFVFLD (cyclic) (not fully specified; cyclised or stapled) [Peptide A2-4]
NFκB; [5]
  activity in reducing NFκB activation: superior activities
TNFα
  activity in reducing TNFα: superior activities in reducing TNFα

## HN-RRRFVFL[Nle]D (cyclic) [Peptide A15]
NFκB
  EC50 NFκB: 5.053 µg/mL
TNFα
  activity in reducing TNFα activation: improved activities in reducing TNFα activation
  EC50 TNFα: 36.75 µg/mL
IL-6
  EC50 IL-6: 32.39 µg/mL

## HN-RRRFVFL[dS]D (cyclic) (RRRFVFLSD; not fully specified; D-residues; cyclised or stapled) [Peptide A2-5]
NFκB; [5]
  activity in reducing NFκB activation: superior activities
TNFα
  activity in reducing TNFα: superior activities in reducing TNFα
[2]; compared to ova-induced vehicle treated mice, p=0.026
  TSLP level in lung homogenate: significantly lower levels of TSLP
[2]; compared to vehicle treated animals, p<0.005
  total protein levels in the lung: significantly decreased
[2]; compared with vehicle treated mice
  TH-2 mediated cytokines IL-5, IL-4 and IL-13 in lung tissue: reduction of TH-2 mediated cytokines IL-5, IL-4 and IL-13

## RRRFVFLD (not fully specified; cyclic (HN- at the N-terminus (so in the source))) [SERPIN peptide derivative A2-4, HN-RRRFVFLD (cyclic)]
[3]
  EC50, NFκB (reduction of NFκB activation, SEAP reporter cells, LPS): 5.25 µg/mL
[4]
  EC50, IL-6 (IMG microglial cells, LPS, ELISA): 11.3 µg/mL
  EC50, TNFα (IMG microglial cells, LPS, ELISA): 12.5 µg/mL

## RRRFVFLAD (not fully specified; cyclic (HN- at the N-terminus (so in the source))) [SERPIN peptide derivative A2-3, HN-RRRFVFLAD (cyclic)]
[3]
  EC50, NFκB (reduction of NFκB activation, SEAP reporter cells, LPS): 2.65 µg/mL
[4]
  EC50, IL-6 (IMG microglial cells, LPS, ELISA): 3.38 µg/mL
  EC50, TNFα (IMG microglial cells, LPS, ELISA): 11.8 µg/mL

B1: SERPIN peptide derivative A3-14, HN-RRRAT[Nal]L[Nle]D (cyclic) (peptide)
peptide: RRRAT[Nal]L[Nle]D
modifications: not fully specified (bridges); printed as HN- RRRAT[Nal]L[NIe]D (cyclic); also: cyclic, ring not given here
[3]
  EC50, NFκB (reduction of NFκB activation, SEAP reporter cells, LPS): 3.77 µg/mL
[4]
  EC50, IL-6 (IMG microglial cells, LPS, ELISA): 0.605 µg/mL
  EC50, TNFα (IMG microglial cells, LPS, ELISA): 6 µg/mL

## VKFNKPFVFLMIEQNTK [SERPIN peptide SP16 (VKFNKPFVFLMIEQNTK)]
[3]
  EC50, NFκB (reduction of NFκB activation, SEAP reporter cells, LPS): 152 µg/mL
[4]
  EC50, TNFα (IMG microglial cells, LPS, ELISA): ~618 µg/mL

## Ac-RRRCPFVFL[Nle]C (disulfide 4-11 (inferred)) [SERPIN peptide derivative SA7, Ac-RRRCPFVFL[Nle]C (cyclic)]
Serine protease TMPRSS2
  IC50, protease TMPRSS2 activity in an overexpressing cell system: 83 ng/mL
[3]
  EC50, NFκB (reduction of NFκB activation, SEAP reporter cells, LPS): 470 µg/mL
[4]
  EC50, IL-6 (IMG microglial cells, LPS, ELISA): 318 µg/mL
  EC50, TNFα (IMG microglial cells, LPS, ELISA): 124 µg/mL

B2: SERPIN peptide derivative A2-5, HN-RRRFVFL[dS]D (cyclic) (peptide)
peptide: RRRFVFLSD
modifications: not fully specified; D-Ser at position 8; cyclic (HN- at the N-terminus (so in the source))
[3]
  EC50, NFκB (reduction of NFκB activation, SEAP reporter cells, LPS): 1.47 µg/mL
[4]
  EC50, IL-6 (IMG microglial cells, LPS, ELISA): 1.4 µg/mL
  EC50, TNFα (IMG microglial cells, LPS, ELISA): 2.39 µg/mL

B3: SERPIN peptide derivative A15, HN-RRRFVFL[Nle]D (cyclic) (peptide)
peptide: RRRFVFLXD
modifications: not fully specified; Nle (norleucine) at position 8; cyclic: head-to-tail linker between the amino group of the N-terminal Arg and the side-chain carboxylic acid of the C-terminal Asp, ring closing length 12 C-C bonds
[3]
  EC50, NFκB (reduction of NFκB activation, SEAP reporter cells, LPS): 5.05 µg/mL
[4]
  EC50, IL-6 (IMG microglial cells, LPS, ELISA): 32.4 µg/mL
  EC50, TNFα (IMG microglial cells, LPS, ELISA): 36.8 µg/mL

## Ac-RRRKFT[Nal]LD (lactam 4-9) [SERPIN peptide derivative A3-7, Ac-RRRKFT[Nal]LD (cyclic)]
[3]
  EC50, NFκB (reduction of NFκB activation, SEAP reporter cells, LPS): 22.4 µg/mL
[4]
  EC50, IL-6 (IMG microglial cells, LPS, ELISA): 3.65 µg/mL

## Ac-RRR[Dap]FT[Nal]L[Nle]D [SERPIN peptide derivative A2-1, Ac-RRR[Dap]FT[Nal]L[Nle]D (cyclic)]
[3]
  EC50, NFκB (reduction of NFκB activation, SEAP reporter cells, LPS): 5.77 µg/mL
[4]
  EC50, IL-6 (IMG microglial cells, LPS, ELISA): 9.64 µg/mL
  EC50, TNFα (IMG microglial cells, LPS, ELISA): 13 µg/mL

B4: SERPIN peptide derivative A3-10, HN-RRRFVFL[dDap]D (cyclic) (peptide)
peptide: RRRFVFLXD
modifications: not fully specified; D-Dap at position 8; cyclic (HN- at the N-terminus (so in the source))
[3]
  EC50, NFκB (reduction of NFκB activation, SEAP reporter cells, LPS): 2.16 µg/mL
[4]
  EC50, IL-6 (IMG microglial cells, LPS, ELISA): 58.5 µg/mL
  EC50, TNFα (IMG microglial cells, LPS, ELISA): 34.6 µg/mL
